This note sets out measurements from ChEMBL document CHEMBL5465560, “Selectivity Literature for EUbOPEN Chemogenomic Library” (2024).

The target of experiment [1] is Phosphatidylinositol 3-kinase catalytic subunit type 3 (Homo sapiens, UniProt Q8NEB9). The experiment in a line: Selectivity interaction (Kinase panel (KiNativ target engagement assay in Jurkat cells)) EUB0001635a PIK3C3. The experiment is classed as cell-based. The following applies: Selectivity number of off-targets 0.0, Selectivity number of targets 233.0, Source Knowledge https://www.sciencedirect.com/science/article/pii/S2451945619300674?via%3Dihub, at 1 µM.

The target in experiment [2] is T1, Serine/threonine-protein kinase TBK1 (Homo sapiens) (UniProt Q9UHD2).
T1 sequence (whole entry): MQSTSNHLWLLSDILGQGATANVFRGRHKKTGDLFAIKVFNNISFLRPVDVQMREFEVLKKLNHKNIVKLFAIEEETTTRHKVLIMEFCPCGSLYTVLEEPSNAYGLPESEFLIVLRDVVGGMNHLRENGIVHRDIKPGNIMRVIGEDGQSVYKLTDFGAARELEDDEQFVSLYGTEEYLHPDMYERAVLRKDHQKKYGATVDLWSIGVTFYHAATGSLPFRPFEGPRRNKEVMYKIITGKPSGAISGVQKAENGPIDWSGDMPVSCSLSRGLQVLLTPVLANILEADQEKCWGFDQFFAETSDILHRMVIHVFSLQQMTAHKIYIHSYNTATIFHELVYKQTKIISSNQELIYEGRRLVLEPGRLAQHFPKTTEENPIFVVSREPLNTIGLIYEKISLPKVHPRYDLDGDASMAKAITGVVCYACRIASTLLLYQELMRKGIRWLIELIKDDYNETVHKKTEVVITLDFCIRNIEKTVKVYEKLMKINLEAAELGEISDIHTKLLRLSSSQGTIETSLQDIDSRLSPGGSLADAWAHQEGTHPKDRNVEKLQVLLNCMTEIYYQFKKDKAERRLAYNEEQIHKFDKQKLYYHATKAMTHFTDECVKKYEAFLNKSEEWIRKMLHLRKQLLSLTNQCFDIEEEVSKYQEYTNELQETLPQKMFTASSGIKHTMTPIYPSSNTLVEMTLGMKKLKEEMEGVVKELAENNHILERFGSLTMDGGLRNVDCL
The experiment is described as follows: Selectivity interaction (SelectScreen profiling (Invitrogen)) EUB0000607a TBK1. The following applies: at 2 µM.

For experiment [3], the target named is T2, Membrane-associated tyrosine- and threonine-specific cdc2-inhibitory kinase (Homo sapiens) (UniProt Q99640).
T2 sequence (whole entry): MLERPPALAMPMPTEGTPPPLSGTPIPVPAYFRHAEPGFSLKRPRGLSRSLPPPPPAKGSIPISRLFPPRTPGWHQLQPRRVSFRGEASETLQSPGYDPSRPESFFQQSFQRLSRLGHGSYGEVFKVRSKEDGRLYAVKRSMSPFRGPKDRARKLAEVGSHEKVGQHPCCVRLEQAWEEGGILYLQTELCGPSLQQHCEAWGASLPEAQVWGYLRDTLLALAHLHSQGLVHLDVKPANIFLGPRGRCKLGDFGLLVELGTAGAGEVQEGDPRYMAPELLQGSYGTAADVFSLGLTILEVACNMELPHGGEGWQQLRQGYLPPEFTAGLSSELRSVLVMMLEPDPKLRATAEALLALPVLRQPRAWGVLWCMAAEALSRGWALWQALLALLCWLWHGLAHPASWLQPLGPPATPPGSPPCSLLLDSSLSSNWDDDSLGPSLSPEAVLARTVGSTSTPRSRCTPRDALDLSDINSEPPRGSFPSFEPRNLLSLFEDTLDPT
The experiment in a line: Selectivity interaction (KinomeScan (DiscoverX)) EUB0000695a PKMYT1. The following applies: at 100 nM.

Experiment [4] deals with T3, TGF-beta receptor type-1 (Homo sapiens) (UniProt P36897).
T3 sequence (whole entry): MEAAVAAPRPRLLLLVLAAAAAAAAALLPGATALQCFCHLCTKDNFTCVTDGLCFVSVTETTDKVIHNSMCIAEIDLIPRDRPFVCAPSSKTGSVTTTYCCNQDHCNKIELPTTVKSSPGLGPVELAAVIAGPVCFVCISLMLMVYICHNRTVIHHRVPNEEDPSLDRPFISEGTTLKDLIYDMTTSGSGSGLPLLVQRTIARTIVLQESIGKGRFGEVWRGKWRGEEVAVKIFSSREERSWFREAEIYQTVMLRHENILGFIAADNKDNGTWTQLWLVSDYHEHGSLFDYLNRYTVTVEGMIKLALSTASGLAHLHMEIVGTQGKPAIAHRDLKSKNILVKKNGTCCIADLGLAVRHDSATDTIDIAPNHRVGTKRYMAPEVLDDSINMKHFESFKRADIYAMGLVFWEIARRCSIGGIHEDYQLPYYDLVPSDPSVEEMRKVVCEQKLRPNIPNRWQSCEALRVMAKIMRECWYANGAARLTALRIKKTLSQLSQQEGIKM
The experiment is described as follows: Selectivity interaction (KinomeScan (DiscoverX)) EUB0000092b TGFBR1. The following applies: at 10 µM.

For experiment [5], the target named is T4, Protein kinase C epsilon type (Homo sapiens) (UniProt Q02156).
T4 sequence (whole entry): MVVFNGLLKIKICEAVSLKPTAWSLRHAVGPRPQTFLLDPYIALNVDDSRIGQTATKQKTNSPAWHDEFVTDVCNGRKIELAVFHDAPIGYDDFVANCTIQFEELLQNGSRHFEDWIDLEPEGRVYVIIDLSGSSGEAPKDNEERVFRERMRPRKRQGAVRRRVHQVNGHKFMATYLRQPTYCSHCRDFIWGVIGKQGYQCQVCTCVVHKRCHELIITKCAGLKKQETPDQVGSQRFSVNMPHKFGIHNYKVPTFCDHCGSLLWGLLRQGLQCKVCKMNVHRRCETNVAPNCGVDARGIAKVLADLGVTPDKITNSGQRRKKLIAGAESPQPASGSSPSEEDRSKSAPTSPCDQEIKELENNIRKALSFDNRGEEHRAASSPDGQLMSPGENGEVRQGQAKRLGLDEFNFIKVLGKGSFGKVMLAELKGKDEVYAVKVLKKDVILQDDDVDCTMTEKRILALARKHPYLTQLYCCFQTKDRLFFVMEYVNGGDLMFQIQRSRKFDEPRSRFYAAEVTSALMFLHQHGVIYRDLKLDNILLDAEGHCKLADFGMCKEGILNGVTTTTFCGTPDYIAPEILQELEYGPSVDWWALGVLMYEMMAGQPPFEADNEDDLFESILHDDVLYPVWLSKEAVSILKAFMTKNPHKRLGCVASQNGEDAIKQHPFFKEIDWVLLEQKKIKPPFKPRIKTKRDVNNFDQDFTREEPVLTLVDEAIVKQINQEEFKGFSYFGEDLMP
The experiment is described as follows: Selectivity interaction (KinomeScan (DiscoverX)) EUB0000618a PRKCE. The following applies: at 10 µM.

Chain of Phosphatidylinositol 3-kinase catalytic subunit type 3 (Q8NEB9 whole entry): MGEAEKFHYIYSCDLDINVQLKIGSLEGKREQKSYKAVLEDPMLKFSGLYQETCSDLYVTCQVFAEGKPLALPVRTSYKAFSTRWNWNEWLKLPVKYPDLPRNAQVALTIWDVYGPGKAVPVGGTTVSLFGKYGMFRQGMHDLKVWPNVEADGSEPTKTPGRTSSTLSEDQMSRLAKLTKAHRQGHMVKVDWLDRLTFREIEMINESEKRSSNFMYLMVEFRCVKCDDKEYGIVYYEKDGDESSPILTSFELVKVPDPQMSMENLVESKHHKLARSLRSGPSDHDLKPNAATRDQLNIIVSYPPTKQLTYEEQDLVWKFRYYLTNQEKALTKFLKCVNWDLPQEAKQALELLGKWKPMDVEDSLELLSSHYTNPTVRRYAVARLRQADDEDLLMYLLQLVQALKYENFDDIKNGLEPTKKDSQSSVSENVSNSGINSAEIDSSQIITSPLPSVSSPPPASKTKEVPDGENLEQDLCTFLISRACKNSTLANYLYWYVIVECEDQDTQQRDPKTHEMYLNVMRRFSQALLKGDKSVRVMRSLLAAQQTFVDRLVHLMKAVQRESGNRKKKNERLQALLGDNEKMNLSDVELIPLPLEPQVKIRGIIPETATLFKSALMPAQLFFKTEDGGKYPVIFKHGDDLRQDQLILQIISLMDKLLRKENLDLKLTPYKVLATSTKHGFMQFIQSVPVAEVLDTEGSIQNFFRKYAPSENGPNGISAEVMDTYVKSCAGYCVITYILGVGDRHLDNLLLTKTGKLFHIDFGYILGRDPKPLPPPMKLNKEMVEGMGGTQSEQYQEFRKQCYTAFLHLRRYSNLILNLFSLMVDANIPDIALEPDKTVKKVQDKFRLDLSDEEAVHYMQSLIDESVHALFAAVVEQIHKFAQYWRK

With `C=CC(=O)Nc1ccc(C(=O)Nc2[nH]nc3c2CN(C(=O)N[C@H](CN(C)C)c2ccccc2)C3(C)C)cc1`, the % of engagement in experiment [1] was -5.1%.

In turn, `CNC(=O)Nc1ccc(-c2nc(N3CC4CCC(C3)O4)c3cnn(C4CCC5(CC4)OCCO5)c3n2)cc1` registered a % of inhibition in experiment [2] of 2%. In the case of `Cc1cc(F)c(C(=O)Nc2cccc(-c3nncn3C(C)C)n2)cc1-n1cnc(C2CC2)c1`, the % of control in experiment [3] turned out to be 98%. Take `CCC(=O)N1CCN(c2ccc(-n3c(=O)ccc4cnc5ccc(-c6cnc7ccccc7c6)cc5c43)cc2C(F)(F)F)CC1`: in experiment [4], the % of control is 70%. On to `O[C@H]1CC[C@H](Nc2ncc3nc(Nc4c(F)cc(F)cc4F)n([C@H]4CCOC4)c3n2)CC1`, for which the % of control in experiment [5] was 98%.
